Patent US7235537B2, “N3 alkylated benzimidazole derivatives as MEK inhibitors” (Array BioPharma, Inc., priority 2002, dated 2007)

Test system: N-terminal 6 His-tagged, constitutively active MEK1 (2-393)
Test: MEK1 kinase assay (incorporation of γ-33P-phosphate from γ-33P-ATP onto ERK2)
Format: biochemical
Settings: 5 nM MEK1, 1 μM ERK2, 10 μM ATP, 45 minutes at ambient temperature, 1% DMSO
Method: The activity of the compounds of the present invention may be determined by the following procedure. N-terminal 6 His-tagged, constitutively active MEK1 (2-393) is expressed in E. coli and protein is purified by conventional methods (Ahn et al., Science 1994, 265, 966-970). The activity of MEK1 is assessed by measuring the incorporation of γ-^33P-phosphate from γ-^33P-ATP onto N-terminal His tagged ERK2, which is expressed in E. coli and is purified by conventional methods, in the presence of MEK1. The assay is carried out in 96-well polypropylene plate. The incubation mixture (100 μL) comprises of 25 mM Hepes, pH 7.4, 10 mM MgCl2, 5 mM β-glycerolphosphate, 100 μM Na-orthovanadate, 5 mM DTT, 5 nM MEK1, and 1 μM ERK2. Inhibitors are suspended in DMSO, and all reactions, including controls are performed at a final concentration of 1% DMSO. Reactions are initiated by the addition of 10 μM ATP (with 0.5 μCi γ-^33P-ATP/well) and incubated at ambient temperature for 45 minutes. Equal volume of 25% TCA is added to stop the reaction and precipitate the proteins. Precipitated proteins are trapped onto glass fiber B filterplates, and excess labeled ATP washed off using a Tomtec MACH III harvester. Plates are allowed to air-dry prior to adding 30 μL/well of Packard Microscint 20, and plates are counted using a Packard TopCount.

Activity	Compound
active	O=C(NOCCO)c1cc2[nH]cnc2c(F)c1Nc1ccc(Br)cc1Cl [Compound 8n]
active	O=C(NOCC1CC1)c1cc2[nH]cnc2c(F)c1Nc1ccc(Br)cc1Cl [Compound 11b, 6-(4-Bromo-2-chloro-phenylamino)-7-fluoro-3H-benzoimidazole-5-carboxylic acid cyclopropylmethoxy-amide]
active	Cc1cc(Br)ccc1Nc1c(C(=O)NOCC2CC2)cc2c(ncn2C)c1F [Compound 11c]
active	O=C(NOCCO)c1cc2c(ncn2CC2CCCCO2)c(F)c1Nc1ccc(Br)cc1Cl (stereo not drawn) [Compound 11p, 6-(4-Bromo-2-chloro-phenylamino)-7-fluoro-3-(tetrahydro-pyran-2-ylmethyl)-3H-benzoimidazole-5-carboxylic acid (2-hydroxy-ethoxy)-amide]
active	Cc1cc(Br)ccc1Nc1c(C(=O)NOCC2CC2)cc2c(ncn2CCCCN2CCCCC2)c1F [Compound 18i]
active	CCCCn1cnc2c(F)c(Nc3ccc(Br)cc3Cl)c(C(=O)NOCC3CC3)cc21 [Compound 29bb]
active	Cn1cnc2c(F)c(Nc3ccc(Br)cc3Cl)c(C(=O)NOCCO)cc21 [Compound 29c, 6-(4-Bromo-2-chloro-phenylamino)-7-fluoro-3-methyl-3H-benzoimidazole-5-carboxylic acid (2-hydroxy-ethoxy)-amide]
active	Cn1cnc2c(F)c(Nc3ccc(Br)cc3Cl)c(C(=O)NOC(C)(C)CO)cc21 [Compound 29i]
active	Cn1cnc2c(F)c(Nc3ccc(Br)cc3F)c(C(=O)NOCCO)cc21 [Compound 29lll]
active	Cn1cnc2c(F)c(Nc3ccc(Br)cc3F)c(C(=O)NOC(C)(C)CO)cc21 [Compound 29mmm]
active	Cc1nc(Cn2cnc3c(F)c(Nc4ccc(Br)cc4Cl)c(C(=O)NOCCO)cc32)cs1 [Compound 29s]
active	O=C(NOCCO)c1cc2c(ncn2Cc2ccc(Cl)cc2)c(F)c1Nc1ccc(Br)cc1Cl [Compound 29t]
